Assays:
Type in all cases: cell-based
EGFR SVD [1] = target: T1, EGFR SVD (Homo sapiens, UniProt P00533, DUP768-770); assay: Activity for inhibiting EGFR (Table A), EGFR SVD; settings: read-out: EGFR SVD, potency code (IC50)
T1 construct: expressed in transfected cells; host or cells: BaF3 (murine pro-B), retroviral pMXs-IRES-Blasticidin

HER2 S310F [2] = target: T2, HER2 S310F (Homo sapiens, UniProt P04626, S310F); assay: Activity for inhibiting HER2 (Table B), HER2 S310F; settings: read-out: HER2 S310F, potency code (IC50)
T2 construct: expressed in transfected cells; host or cells: BaF3 (murine pro-B)
Experimental: (§1) EC50 values were determined with the same application.

HER2 YVMA [3] = target: T3, HER2 YVMA (Homo sapiens, UniProt P04626, INS775YVMA); assay: Activity for inhibiting HER2 (Table B), HER2 YVMA; settings: read-out: HER2 YVMA, potency code (IC50)
T3 construct: expressed in transfected cells; host or cells: BaF3 (murine pro-B)
T3 sequence (P04626 with tags, fused parts or gaps INS775YVMA): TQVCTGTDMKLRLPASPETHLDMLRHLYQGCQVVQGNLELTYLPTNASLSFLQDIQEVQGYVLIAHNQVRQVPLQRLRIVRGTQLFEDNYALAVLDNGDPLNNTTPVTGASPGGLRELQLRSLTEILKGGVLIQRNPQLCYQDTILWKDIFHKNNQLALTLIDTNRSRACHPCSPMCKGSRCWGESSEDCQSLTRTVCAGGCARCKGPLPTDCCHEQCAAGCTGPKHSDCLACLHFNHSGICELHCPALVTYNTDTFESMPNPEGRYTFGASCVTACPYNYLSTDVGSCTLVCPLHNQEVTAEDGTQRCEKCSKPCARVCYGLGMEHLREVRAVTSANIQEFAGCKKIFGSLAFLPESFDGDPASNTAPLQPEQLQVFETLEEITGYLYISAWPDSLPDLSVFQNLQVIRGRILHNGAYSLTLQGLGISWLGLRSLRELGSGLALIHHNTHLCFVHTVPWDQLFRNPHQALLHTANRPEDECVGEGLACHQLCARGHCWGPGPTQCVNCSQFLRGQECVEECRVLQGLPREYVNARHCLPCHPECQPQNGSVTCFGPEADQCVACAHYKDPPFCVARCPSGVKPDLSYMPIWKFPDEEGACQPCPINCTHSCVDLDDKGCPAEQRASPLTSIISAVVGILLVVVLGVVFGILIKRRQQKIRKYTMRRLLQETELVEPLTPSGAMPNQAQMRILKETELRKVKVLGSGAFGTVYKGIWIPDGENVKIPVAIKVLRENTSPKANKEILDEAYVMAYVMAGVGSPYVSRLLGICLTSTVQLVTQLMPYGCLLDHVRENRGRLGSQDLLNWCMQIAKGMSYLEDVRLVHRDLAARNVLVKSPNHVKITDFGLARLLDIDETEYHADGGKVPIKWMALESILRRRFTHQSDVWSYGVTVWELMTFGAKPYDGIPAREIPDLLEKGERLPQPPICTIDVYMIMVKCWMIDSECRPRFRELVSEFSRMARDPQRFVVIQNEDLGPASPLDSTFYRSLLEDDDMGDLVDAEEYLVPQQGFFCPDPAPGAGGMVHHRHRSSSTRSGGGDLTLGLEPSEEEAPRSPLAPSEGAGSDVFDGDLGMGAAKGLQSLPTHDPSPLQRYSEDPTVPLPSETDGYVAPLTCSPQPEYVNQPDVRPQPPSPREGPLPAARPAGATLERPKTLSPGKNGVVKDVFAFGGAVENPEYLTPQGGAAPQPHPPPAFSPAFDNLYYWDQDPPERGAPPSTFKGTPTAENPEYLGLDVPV
Experimental: as §1

EGFR SVD [4] = target: T1, EGFR SVD; assay: BaF3 cell proliferation assay, EGFR SVD (Table A); settings: potency code, 3 days, CellTiterGlo, read-out: EGFR SVD (Activity for Inhibiting EGFR)
Experimental: (§2) Retroviral Production: EGFR mutants were subcloned into pMXs-IRES-Blasticidin (RTV-016, Cell Biolabs, San Diego, Calif.). Retroviral expression vector retrovirus was produced by transient transfection of HEK 293T cells with the retroviral EGFR mutant expression vector pMXs-IRES-Blasticidin (RTV-016, Cell Biolabs), pCMV-Gag-Pol vector and pCMV-VSV-G-Envelope vector. Briefly, HEK 293T/17 cells were plated in 100 mm collagen coated plate (354450, Corning Life Sciences, Tewksbury, Mass.) (4×10^5 per plate) and incubated overnight. The next day, retroviral plasmids (3 μg of EGFR mutant, 1.0 μg of pCMV-Gag-Pol and 0.5 μg pCMV-VSV-G) were mixed in 500 μl of Optimem (31985, Life Technologies). The mixture was incubated at room temperature for 5 min and then added to Optimem containing transfection reagent Lipofectamine (11668, Invitrogen) and incubated for 20 minutes. Mixture was then added dropwise to HEK 293T cells. The next day the medium was replaced with fresh culture medium and retrovirus was harvested @ 24 and 48 hrs.
(§3) Generation of EGFR mutant stable cell lines: BaF3 cells (1.5E5 cells) were infected with 1 ml of viral supernatant supplemented with 8 μg/ml polybrene by centrifuging for 30 min at 1000 rpm. Cells were placed in a 37° C. incubator overnight. Cells were then spun for 5 minutes to pellet the cells. Supernatant was removed and cells re-infected a fresh 1 ml of viral supernatant supplemented with 8 μg/ml polybrene by centrifuging for 30 min at 1000 rpm. Cells were placed in 37° C. incubator overnight. […] After 48 hours cells were selected for retroviral infection in 10 μg/ml Blasticidin for one week. Blasticidin resistant populations were washed twice in phosphate buffered saline before plating in media lacking IL-3 to select for IL-3 independent growth.
as §1

HER2 S310F [5] = target: T2, HER2 S310F; assay: BaF3 cell proliferation assay, HER2 S310F (Table B); settings: potency code, 3 days, CellTiterGlo, read-out: HER2 S310F (Activity for Inhibiting HER2)
EGFR NPH [6] = target: T4, EGFR NPH (Homo sapiens, UniProt P00533, DUP771-773); assay: Activity for inhibiting EGFR (Table A), EGFR NPH; settings: read-out: EGFR NPH, potency code (IC50)
T4 construct: expressed in transfected cells; host or cells: BaF3 (murine pro-B), retroviral pMXs-IRES-Blasticidin
T4 sequence (P00533 with tags, fused parts or gaps DUP771-773): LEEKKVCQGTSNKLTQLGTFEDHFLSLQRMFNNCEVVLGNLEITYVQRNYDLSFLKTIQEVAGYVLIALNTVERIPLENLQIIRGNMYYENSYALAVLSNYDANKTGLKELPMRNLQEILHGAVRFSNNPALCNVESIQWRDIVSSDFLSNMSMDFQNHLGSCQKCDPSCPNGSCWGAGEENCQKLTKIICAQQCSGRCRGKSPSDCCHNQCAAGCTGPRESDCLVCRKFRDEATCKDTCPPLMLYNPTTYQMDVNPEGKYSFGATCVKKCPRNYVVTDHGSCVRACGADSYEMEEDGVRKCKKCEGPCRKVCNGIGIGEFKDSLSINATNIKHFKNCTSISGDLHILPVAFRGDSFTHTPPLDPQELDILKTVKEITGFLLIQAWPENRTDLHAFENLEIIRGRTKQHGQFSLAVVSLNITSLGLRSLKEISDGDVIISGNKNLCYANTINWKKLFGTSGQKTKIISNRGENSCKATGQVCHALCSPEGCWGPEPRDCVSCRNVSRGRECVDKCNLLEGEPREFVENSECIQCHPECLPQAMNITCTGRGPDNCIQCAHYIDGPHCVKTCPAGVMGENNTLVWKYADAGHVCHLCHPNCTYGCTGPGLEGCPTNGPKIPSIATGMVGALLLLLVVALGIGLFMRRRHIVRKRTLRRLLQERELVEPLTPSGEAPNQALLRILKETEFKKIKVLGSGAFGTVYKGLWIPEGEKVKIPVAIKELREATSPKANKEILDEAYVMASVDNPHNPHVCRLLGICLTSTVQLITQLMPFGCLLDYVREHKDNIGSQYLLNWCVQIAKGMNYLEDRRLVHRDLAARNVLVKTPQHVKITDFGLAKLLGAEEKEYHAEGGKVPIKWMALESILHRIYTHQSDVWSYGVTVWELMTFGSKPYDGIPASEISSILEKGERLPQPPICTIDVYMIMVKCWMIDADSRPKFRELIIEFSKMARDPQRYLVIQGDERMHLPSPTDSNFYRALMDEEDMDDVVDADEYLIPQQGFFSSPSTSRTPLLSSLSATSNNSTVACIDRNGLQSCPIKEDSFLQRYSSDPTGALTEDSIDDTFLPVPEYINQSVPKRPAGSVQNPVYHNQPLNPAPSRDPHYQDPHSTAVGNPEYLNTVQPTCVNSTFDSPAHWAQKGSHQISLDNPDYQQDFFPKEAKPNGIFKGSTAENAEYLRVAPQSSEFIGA

HER2 WT [7] = target: T5, HER2 WT (Homo sapiens, UniProt P04626); assay: BaF3 cell proliferation assay, HER2 WT (Table B); settings: potency code, 3 days, CellTiterGlo, read-out: HER2 WT (Activity for Inhibiting HER2)
EGFR V3 [8] = target: T6, EGFR V3 (Homo sapiens, UniProt P00533, DELINS30-297G); assay: Activity for inhibiting EGFR (Table A), EGFR V3 (EGFR-Viii); settings: read-out: EGFR V3, potency code (IC50)
T6 construct: expressed in transfected cells; host or cells: BaF3 (murine pro-B), retroviral pMXs-IRES-Blasticidin
T6 sequence (P00533 with tags, fused parts or gaps DELINS30-297G): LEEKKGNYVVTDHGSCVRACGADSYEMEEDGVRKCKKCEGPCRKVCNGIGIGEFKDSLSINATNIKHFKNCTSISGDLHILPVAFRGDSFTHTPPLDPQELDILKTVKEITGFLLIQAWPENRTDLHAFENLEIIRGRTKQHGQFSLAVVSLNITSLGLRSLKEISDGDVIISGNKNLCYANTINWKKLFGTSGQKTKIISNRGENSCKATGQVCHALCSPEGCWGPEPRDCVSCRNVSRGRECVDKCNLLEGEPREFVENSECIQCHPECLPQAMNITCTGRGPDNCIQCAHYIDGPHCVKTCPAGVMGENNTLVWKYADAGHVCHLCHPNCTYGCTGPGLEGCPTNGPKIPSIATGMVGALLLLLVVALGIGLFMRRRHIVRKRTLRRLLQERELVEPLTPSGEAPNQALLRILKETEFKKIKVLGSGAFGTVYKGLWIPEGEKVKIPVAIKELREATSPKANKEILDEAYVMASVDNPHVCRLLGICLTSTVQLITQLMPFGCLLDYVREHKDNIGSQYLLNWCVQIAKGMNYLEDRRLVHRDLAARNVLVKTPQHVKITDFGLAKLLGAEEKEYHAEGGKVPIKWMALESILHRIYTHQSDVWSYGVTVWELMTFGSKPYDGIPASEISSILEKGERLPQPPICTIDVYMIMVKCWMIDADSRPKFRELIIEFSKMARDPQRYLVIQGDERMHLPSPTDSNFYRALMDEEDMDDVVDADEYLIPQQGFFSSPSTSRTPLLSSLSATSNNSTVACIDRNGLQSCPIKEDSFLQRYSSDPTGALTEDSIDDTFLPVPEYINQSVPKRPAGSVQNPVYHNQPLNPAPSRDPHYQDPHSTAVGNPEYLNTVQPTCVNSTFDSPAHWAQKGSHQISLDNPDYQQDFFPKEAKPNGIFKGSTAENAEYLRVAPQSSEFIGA

EGFR WT [9] = target: T7, EGFR WT (Homo sapiens, UniProt P00533); assay: Activity for inhibiting EGFR (Table A), EGFR WT; settings: read-out: EGFR WT, potency code (IC50)
T7 sequence (P00533 25-1210 N540K): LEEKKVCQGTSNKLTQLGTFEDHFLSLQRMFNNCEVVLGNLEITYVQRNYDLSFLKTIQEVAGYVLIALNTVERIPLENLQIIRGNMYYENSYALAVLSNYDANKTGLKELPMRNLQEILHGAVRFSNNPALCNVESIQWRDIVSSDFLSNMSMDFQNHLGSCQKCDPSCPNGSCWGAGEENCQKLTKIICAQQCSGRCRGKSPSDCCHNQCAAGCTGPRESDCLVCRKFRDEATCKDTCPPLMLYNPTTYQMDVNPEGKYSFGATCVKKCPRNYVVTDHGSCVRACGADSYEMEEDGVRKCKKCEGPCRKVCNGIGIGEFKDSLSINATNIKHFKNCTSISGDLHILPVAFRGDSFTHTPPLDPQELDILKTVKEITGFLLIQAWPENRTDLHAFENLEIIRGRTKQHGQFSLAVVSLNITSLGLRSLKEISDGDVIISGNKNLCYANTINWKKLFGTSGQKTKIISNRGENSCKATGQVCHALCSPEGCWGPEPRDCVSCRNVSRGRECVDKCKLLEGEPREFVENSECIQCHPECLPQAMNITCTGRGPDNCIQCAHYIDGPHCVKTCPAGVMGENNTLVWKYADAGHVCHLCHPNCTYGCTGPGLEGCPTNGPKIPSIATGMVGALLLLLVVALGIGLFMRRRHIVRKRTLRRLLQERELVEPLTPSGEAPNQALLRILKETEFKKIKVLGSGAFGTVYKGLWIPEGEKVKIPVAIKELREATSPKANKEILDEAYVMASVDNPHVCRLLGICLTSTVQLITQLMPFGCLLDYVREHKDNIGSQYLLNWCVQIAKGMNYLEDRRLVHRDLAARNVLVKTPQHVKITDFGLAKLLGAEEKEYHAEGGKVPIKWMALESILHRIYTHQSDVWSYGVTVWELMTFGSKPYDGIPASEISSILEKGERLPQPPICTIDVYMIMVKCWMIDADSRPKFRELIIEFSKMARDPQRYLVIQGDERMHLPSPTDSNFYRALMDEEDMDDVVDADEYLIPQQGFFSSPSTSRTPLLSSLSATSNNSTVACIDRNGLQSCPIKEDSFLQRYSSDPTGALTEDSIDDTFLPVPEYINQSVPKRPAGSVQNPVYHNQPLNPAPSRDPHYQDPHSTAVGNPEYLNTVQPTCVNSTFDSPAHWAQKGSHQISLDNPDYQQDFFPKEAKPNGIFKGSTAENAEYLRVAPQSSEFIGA

HER2 WT [10] = target: T5, HER2 WT; assay: Activity for inhibiting HER2 (Table B), HER2 WT
EGFR NPH [11] = target: T4, EGFR NPH; assay: BaF3 cell proliferation assay, EGFR NPH (Table A); settings: potency code, 3 days, CellTiterGlo, read-out: EGFR NPH (Activity for Inhibiting EGFR)
Experimental: as §2, §3, §1

EGFR V3 [12] = target: T6, EGFR V3; assay: BaF3 cell proliferation assay, EGFR V3 (Table A); settings: potency code, 3 days, CellTiterGlo, read-out: EGFR V3 (Activity for Inhibiting EGFR)
Outline: (§4)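 BaF3 + retroviral EGFR/HER2 mutant (two rounds of spinfection, 8 μg/ml polybrene); 10 μg/ml Blasticidin selection 1 wk; IL-3 withdrawn to select IL-3-independent growth. EC50 from cell proliferation.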

EGFR WT [13] = target: T7, EGFR WT; assay: BaF3 cell proliferation assay, EGFR WT (Table A); settings: potency code, 3 days, CellTiterGlo, read-out: EGFR WT (Activity for Inhibiting EGFR)
Outline: as §4

HER2 YVMA [14] = target: T3, HER2 YVMA; assay: BaF3 cell proliferation assay, HER2 YVMA (Table B); settings: potency code, 3 days, CellTiterGlo, read-out: HER2 YVMA (Activity for Inhibiting HER2)
[15] = Table B, read-out: HER2 WT, potency code (IC50)
[16] = text lists of compounds, read-out: IC50 value for inhibiting wild-type HER2

Row | SMILES | IC50 (EGFR SVD [1]) [nM] | IC50 (HER2 S310F [2]) [nM] | IC50 (HER2 YVMA [3]) [nM] | IC50 (EGFR SVD [4]) [nM] | IC50 (HER2 S310F [5]) [nM] | IC50 (EGFR NPH [6]) [nM] | IC50 (HER2 WT [7]) [nM] | IC50 (EGFR V3 [8]) [nM] | IC50 (EGFR WT [9]) [nM] | IC50 (HER2 WT [10]; [15]) [nM] | IC50 (HER2 WT [10]; [16]) [nM] | IC50 (EGFR NPH [11]) [nM] | IC50 (EGFR V3 [12]) [nM] | IC50 (EGFR WT [13]) [nM] | IC50 (HER2 YVMA [14]) [nM]
1 | C=CC(=O)Nc1cc2c(Nc3ccc(OCc4ccccn4)c(Cl)c3)ncnc2cc1OC1CN(C)C1 [compound 25] | 30 to 50 | 10 to 20 | 50 to 100 | 30 to 50 | 10 to 20 | 20 to 30 | 10 to 20 | 200 to 300 | 500 to 1000 | 10 to 20 | ≤ 20 | 20 to 30 | 200 to 300 | 500 to 1000 | 50 to 100
2 | C=CC(=O)Nc1cc2c(Nc3ccc(OCc4ccccn4)c(Cl)c3)ncnc2cc1OCCN1CCCC1 [compound 28] | 30 to 50 | 10 to 20 | 30 to 50 | 30 to 50 | 10 to 20 | 50 to 100 | 5 to 10 | 10 to 20 | 200 to 300 | 5 to 10 | ≤ 10 | 50 to 100 | 10 to 20 | 200 to 300 | 30 to 50
3 | C=CC(=O)Nc1cc2c(Nc3ccc(OCc4ccccn4)c(Cl)c3)ncnc2cc1OCCN1C2CCC1COC2 [compound 31] | 50 to 100 | 30 to 50 | 100 to 200 | 50 to 100 | 30 to 50 | 50 to 100 | 5 to 10 | 30 to 50 | 500 to 1000 | 5 to 10 | ≤ 10 | 50 to 100 | 30 to 50 | 500 to 1000 | 100 to 200
4 | C=CC(=O)Nc1cc2c(Nc3ccc(OCc4ccccn4)c(Cl)c3)ncnc2cc1OCCN1CCC1 [compound 33] | 50 to 100 | 10 to 20 | 100 to 200 | 50 to 100 | 10 to 20 | 50 to 100 | 5 to 10 | 20 to 30 | 300 to 500 | 5 to 10 | ≤ 10 | 50 to 100 | 20 to 30 | 300 to 500 | 100 to 200
5 | C=CC(=O)Nc1cc2c(Nc3ccc(OCc4ccccn4)c(Cl)c3)ncnc2cc1OCCN1CC(OC)C1 [compound 35] | 20 to 30 | 10 to 20 | 30 to 50 | 20 to 30 | 10 to 20 | 50 to 100 | < 5 | 20 to 30 | 300 to 500 | < 5 | ≤ 5 | 50 to 100 | 20 to 30 | 300 to 500 | 30 to 50
6 | C=CC(=O)Nc1cc2c(Nc3ccc(OCc4ccccn4)c(Cl)c3)ncnc2cc1OCCN1CC2CCC(C1)O2 [compound 36] | 50 to 100 | 20 to 30 | 30 to 50 | 50 to 100 | 20 to 30 | 50 to 100 | 10 to 20 | 30 to 50 | > 1000 | 10 to 20 | ≤ 20 | 50 to 100 | 30 to 50 | > 1000 | 30 to 50
7 | C=CC(=O)Nc1cc2c(Nc3ccc(OCc4ccccn4)c(Cl)c3)ncnc2cc1OCCN1CC2CC1CO2 (stereo not drawn) [compound 39] | 30 to 50 | 10 to 20 | 50 to 100 | 30 to 50 | 10 to 20 | 50 to 100 | 5 to 10 | 20 to 30 | 500 to 1000 | 5 to 10 | ≤ 10 | 50 to 100 | 20 to 30 | 500 to 1000 | 50 to 100
8 | C=CC(=O)Nc1cc2c(Nc3ccc(OCc4ccccn4)c(Cl)c3)ncnc2cc1OCCN1CCN(C)CC1 [compound 40] | 10 to 20 | 10 to 20 | 20 to 30 | 10 to 20 | 10 to 20 | 10 to 20 | < 5 | 10 to 20 | 200 to 300 | < 5 | ≤ 10 | 10 to 20 | 10 to 20 | 200 to 300 | 20 to 30
9 | C=CC(=O)Nc1cc2c(Nc3ccc(OCc4ccccn4)c(Cl)c3)ncnc2cc1OCCN(C)C1CCOC1 (stereo not drawn) [compound 41] | 30 to 50 | 20 to 30 | 50 to 100 | 30 to 50 | 20 to 30 | 50 to 100 | 5 to 10 | 30 to 50 | 500 to 1000 | 5 to 10 | ≤ 10 | 50 to 100 | 30 to 50 | 500 to 1000 | 50 to 100
10 | C=CC(=O)Nc1cc2c(Nc3ccc(OCc4ccccn4)c(Cl)c3)ncnc2cc1N1CCN(C)CC1 [compound 42] | 500 to 1000 | 50 to 100 | 500 to 1000 | 500 to 1000 | 50 to 100 | > 1000 | 30 to 50 | 50 to 100 | 500 to 1000 | 30 to 50 | ≤ 50 | > 1000 | 50 to 100 | 500 to 1000 | 500 to 1000
11 | C=CC(=O)Nc1cc2c(Nc3ccc(OCc4ccccn4)c(Cl)c3)ncnc2cc1N1CC2CN(C)CC2C1 (stereo not drawn) [compound 47] | 500 to 1000 | 30 to 50 | 500 to 1000 | 500 to 1000 | 30 to 50 | 500 to 1000 | 10 to 20 | 30 to 50 | 300 to 500 | 10 to 20 | ≤ 20 | 500 to 1000 | 30 to 50 | 300 to 500 | 500 to 1000
12 | C=CC(=O)Nc1cc2c(Nc3ccc(OCc4ccccn4)c(Cl)c3)ncnc2cc1OCCN1CC2COCC2C1 (stereo not drawn) [compound 51] | 30 to 50 | 10 to 20 | 50 to 100 | 30 to 50 | 10 to 20 | 50 to 100 | 5 to 10 | 20 to 30 | 500 to 1000 | 5 to 10 | ≤ 10 | 50 to 100 | 20 to 30 | 500 to 1000 | 50 to 100
13 | C=CC(=O)Nc1cc2c(Nc3ccc(OCc4ccccn4)c(Cl)c3)ncnc2cc1OCCN1CC2(CCO2)C1 [compound 52] | 50 to 100 | 20 to 30 | 100 to 200 | 50 to 100 | 20 to 30 | 50 to 100 | 5 to 10 | 20 to 30 | 500 to 1000 | 5 to 10 | ≤ 10 | 50 to 100 | 20 to 30 | 500 to 1000 | 100 to 200
